Measurements published in the kinase profiling compilation of Christmann-Franck et al. (2016).

Legend:
Assay in all cases: KINOMEscan competition binding
Details in all cases: compound 10.0 µM
PAK6 (human) = PAK6 (human) (UniProt Q9NQU5)
CAMK4 (human) = CAMK4 (human) (UniProt Q16566)
CAMK2B (human) = CAMK2B (human) (UniProt Q13554)
CDC42BPB (human) = CDC42BPB (human) (UniProt Q9Y5S2)
ICK (human) = ICK (human) (UniProt Q9UPZ9)
STK25 (human) = STK25 (human) (UniProt O00506)
PHKG2 (human) = PHKG2 (human) (UniProt P15735)
AKT3 (human) = AKT3 (human) (UniProt Q9Y243)
Chain of AKT3 (human) (Q9Y243 whole entry, looked up): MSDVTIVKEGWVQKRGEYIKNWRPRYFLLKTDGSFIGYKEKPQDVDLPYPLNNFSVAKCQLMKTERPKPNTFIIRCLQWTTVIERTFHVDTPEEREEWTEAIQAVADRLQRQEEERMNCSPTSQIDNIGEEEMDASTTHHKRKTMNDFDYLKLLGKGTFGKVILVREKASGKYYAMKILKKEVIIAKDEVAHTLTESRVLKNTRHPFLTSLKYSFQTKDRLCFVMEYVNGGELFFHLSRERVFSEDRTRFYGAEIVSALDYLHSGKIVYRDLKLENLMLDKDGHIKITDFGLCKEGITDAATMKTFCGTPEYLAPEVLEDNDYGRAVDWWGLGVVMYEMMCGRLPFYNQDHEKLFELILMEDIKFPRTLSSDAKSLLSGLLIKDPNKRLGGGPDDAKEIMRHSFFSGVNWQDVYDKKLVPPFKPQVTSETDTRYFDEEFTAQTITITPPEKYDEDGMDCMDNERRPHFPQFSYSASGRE

WEE1 (human) = WEE1 (human) (UniProt P30291)
RET (human) = RET (human) (UniProt P07949)
LYN (human) = LYN (human) (UniProt P07948)
TBK1 (human) = TBK1 (human) (UniProt Q9UHD2)
PIK3C2B (human) = PIK3C2B (human) (UniProt O00750)
GRK7 (human) = GRK7 (human) (UniProt Q8WTQ7)
TEC (human) = TEC (human) (UniProt P42680)
AKT1 (human) = AKT1 (human) (UniProt P31749)
BMP2K (human) = BMP2K (human) (UniProt Q9NSY1)
STK17A (human) = STK17A (human) (UniProt Q9UEE5)
Chain of STK17A (human) (Q9UEE5 whole entry, looked up): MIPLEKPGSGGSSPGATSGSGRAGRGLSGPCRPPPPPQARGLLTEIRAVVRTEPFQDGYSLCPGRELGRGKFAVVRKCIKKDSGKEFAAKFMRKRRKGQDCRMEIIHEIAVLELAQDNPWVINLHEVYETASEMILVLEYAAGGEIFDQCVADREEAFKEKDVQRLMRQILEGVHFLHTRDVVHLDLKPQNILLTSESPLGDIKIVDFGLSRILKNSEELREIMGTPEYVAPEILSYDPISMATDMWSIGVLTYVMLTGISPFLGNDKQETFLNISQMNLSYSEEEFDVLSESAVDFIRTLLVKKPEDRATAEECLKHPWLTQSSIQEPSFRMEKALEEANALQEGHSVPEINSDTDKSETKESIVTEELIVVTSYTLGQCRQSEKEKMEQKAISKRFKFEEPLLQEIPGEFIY

[1] = tested on: KIT (human), P10721 [L576P]
Chain of KIT (human), P10721 [L576P] (P10721 whole entry L576P, looked up): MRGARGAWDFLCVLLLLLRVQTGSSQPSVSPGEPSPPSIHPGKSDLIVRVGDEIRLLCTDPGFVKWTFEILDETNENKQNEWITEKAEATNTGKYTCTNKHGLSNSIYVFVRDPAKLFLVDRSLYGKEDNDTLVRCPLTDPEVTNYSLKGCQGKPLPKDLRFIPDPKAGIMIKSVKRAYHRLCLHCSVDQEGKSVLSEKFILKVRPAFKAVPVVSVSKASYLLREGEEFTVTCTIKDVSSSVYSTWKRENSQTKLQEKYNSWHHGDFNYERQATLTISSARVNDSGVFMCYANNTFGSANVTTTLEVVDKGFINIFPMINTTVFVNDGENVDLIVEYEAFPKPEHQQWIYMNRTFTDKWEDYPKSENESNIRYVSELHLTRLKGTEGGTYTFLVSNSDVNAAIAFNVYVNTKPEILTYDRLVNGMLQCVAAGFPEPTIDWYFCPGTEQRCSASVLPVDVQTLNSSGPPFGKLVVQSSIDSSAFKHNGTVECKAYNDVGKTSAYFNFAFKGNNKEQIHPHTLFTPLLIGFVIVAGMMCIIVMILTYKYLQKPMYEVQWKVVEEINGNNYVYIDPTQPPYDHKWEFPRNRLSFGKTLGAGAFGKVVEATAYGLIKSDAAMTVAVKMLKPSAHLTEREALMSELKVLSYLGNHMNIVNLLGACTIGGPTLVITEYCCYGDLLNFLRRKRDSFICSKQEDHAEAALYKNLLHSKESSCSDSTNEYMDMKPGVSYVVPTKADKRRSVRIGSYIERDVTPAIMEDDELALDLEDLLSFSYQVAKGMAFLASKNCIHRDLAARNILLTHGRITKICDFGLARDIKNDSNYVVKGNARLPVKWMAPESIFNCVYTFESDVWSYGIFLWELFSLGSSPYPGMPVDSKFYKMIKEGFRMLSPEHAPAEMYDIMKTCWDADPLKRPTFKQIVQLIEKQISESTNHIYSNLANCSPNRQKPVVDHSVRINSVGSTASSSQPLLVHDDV

MAP2K3 (human) = MAP2K3 (human) (UniProt P46734)
NTRK3 (human) = NTRK3 (human) (UniProt Q16288)
[2] = target: JAK3 JH1 catalytic (human) (UniProt P52333)
RPS6KA4 KD2 (human) = RPS6KA4 KD2 (human) (UniProt O75676)
Chain of RPS6KA4 KD2 (human) (O75676 whole entry, looked up): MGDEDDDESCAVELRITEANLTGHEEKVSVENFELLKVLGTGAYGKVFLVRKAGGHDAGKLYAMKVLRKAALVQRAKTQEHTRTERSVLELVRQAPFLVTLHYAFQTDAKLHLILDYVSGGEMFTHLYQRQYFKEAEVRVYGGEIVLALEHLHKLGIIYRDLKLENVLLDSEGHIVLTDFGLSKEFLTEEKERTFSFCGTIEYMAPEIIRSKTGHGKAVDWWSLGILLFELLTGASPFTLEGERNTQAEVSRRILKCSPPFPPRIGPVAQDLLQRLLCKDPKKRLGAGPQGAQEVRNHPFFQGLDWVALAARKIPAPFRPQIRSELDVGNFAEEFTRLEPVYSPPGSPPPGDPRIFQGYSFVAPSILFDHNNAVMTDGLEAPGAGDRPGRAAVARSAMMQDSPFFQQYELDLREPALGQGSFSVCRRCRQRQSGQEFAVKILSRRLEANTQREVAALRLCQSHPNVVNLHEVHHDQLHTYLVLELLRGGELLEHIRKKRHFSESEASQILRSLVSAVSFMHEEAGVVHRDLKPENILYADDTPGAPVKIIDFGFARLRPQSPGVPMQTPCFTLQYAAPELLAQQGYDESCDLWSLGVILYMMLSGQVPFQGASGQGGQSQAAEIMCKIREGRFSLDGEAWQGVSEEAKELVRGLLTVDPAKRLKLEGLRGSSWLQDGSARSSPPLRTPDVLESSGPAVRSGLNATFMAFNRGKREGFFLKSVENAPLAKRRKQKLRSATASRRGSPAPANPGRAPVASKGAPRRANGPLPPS

[3] = target: TYK2 JH2 pseudokinase (human) (UniProt P29597)
CIT (human) = CIT (human) (UniProt O14578)
SIK3 (human) = SIK3 (human) (UniProt Q9Y2K2)
MYLK4 (human) = MYLK4 (human) (UniProt Q86YV6)
PAK3 (human) = PAK3 (human) (UniProt O75914)
CAMK2A (human) = CAMK2A (human) (UniProt Q9UQM7)
ERBB4 (human) = ERBB4 (human) (UniProt Q15303)
CSNK1E (human) = CSNK1E (human) (UniProt P49674)
Chain of CSNK1E (human) (P49674 whole entry, looked up): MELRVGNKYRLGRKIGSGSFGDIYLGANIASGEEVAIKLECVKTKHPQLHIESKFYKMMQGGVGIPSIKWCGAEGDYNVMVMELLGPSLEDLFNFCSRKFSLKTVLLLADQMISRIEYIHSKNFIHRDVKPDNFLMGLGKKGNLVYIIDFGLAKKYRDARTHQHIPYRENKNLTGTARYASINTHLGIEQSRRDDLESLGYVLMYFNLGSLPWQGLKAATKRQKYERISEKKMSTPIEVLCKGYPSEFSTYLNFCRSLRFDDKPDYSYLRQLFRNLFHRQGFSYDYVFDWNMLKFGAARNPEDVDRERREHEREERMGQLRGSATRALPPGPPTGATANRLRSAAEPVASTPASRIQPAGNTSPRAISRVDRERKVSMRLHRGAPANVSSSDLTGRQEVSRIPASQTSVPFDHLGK

ADCK4 (human) = ADCK4 (human) (UniProt Q96D53)
CDK8 (human) = CDK8 (human) (UniProt P49336)
NLK (human) = NLK (human) (UniProt Q9UBE8)
FLT4 (human) = FLT4 (human) (UniProt P35916)
PLK1 (human) = PLK1 (human) (UniProt P53350)
ROCK2 (human) = ROCK2 (human) (UniProt O75116)
STK4 (human) = STK4 (human) (UniProt Q13043)
Chain of STK4 (human) (Q13043 whole entry, looked up): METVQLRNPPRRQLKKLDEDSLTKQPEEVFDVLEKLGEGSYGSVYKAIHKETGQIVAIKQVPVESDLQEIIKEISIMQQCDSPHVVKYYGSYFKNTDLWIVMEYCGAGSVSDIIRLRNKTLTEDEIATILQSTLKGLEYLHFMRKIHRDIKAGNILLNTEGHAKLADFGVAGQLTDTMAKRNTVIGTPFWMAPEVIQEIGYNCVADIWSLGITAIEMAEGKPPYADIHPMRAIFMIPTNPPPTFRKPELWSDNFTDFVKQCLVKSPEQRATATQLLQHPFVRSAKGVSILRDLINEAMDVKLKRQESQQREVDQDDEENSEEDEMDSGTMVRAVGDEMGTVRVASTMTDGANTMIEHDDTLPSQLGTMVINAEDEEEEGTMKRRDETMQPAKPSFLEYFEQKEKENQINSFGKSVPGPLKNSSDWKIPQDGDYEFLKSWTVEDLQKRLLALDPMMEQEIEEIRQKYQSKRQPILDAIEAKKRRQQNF

MYLK3 (human) = MYLK3 (human) (UniProt Q32MK0)
RIOK3 (human) = RIOK3 (human) (UniProt O14730)
Chain of RIOK3 (human) (O14730 whole entry, looked up): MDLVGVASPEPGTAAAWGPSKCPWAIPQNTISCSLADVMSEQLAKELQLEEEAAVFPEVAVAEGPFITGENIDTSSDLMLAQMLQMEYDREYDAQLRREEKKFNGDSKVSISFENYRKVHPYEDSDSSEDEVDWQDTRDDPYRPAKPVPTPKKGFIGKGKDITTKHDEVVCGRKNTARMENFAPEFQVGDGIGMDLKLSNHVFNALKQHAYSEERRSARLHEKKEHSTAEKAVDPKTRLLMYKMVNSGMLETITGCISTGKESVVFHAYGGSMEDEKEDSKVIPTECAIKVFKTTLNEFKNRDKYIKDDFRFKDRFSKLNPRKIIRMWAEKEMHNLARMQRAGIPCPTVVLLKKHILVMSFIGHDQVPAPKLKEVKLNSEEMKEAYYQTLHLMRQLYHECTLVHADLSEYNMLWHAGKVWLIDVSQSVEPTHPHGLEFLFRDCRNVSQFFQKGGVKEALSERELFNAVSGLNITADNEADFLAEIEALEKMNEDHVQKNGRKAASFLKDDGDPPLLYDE

TLK2 (human) = TLK2 (human) (UniProt Q86UE8)
MAP3K11 (human) = MAP3K11 (human) (UniProt Q16584)

Chain of CAMK2B (human) (Q13554 whole entry, looked up): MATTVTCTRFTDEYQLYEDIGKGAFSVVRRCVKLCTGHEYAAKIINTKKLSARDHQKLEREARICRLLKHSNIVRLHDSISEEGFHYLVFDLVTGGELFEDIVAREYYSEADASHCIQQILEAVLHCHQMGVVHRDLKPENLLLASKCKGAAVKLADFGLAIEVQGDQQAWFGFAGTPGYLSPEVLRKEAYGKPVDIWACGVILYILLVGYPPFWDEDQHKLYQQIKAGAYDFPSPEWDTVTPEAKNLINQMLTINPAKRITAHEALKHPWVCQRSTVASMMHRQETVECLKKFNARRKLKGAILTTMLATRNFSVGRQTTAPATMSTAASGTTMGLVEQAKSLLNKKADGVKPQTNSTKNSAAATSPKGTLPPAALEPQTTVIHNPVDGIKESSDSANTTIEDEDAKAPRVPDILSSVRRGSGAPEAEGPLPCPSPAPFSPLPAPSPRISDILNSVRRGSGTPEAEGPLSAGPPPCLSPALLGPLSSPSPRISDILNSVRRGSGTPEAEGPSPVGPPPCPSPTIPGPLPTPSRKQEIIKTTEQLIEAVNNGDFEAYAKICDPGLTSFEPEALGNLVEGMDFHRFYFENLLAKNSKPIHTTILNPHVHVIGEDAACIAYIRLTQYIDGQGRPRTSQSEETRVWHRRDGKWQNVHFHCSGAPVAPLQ

`O=C1Nc2cc(Br)ccc2/C1=C1/Nc2ccccc2/C1=N\O` was tested, and the kinase still bound, per cent of control (PAK6 (human)) was 24%, the kinase still bound, per cent of control (CAMK4 (human)) was 100% and the kinase still bound, per cent of control (CAMK2B (human)) was 3.6%. It also gave a kinase still bound, per cent of control (CDC42BPB (human)) of 90%, a kinase still bound, per cent of control (ICK (human)) of 0.1% and a kinase still bound, per cent of control (STK25 (human)) of 18%. The kinase still bound, per cent of control (PHKG2 (human)) was 5.6%, the kinase still bound, per cent of control (AKT3 (human)) was 100% and the kinase still bound, per cent of control (WEE1 (human)) was 87%. The kinase still bound, per cent of control (RET (human)) was 0%, the kinase still bound, per cent of control (LYN (human)) was 6.2% and the kinase still bound, per cent of control (TBK1 (human)) was 32%. For the same compound, the kinase still bound, per cent of control (PIK3C2B (human)) was 100%, the kinase still bound, per cent of control (GRK7 (human)) was 58% and the kinase still bound, per cent of control (TEC (human)) was 100%. For the same compound, the kinase still bound, per cent of control (AKT1 (human)) was 100%, the kinase still bound, per cent of control (BMP2K (human)) was 0.65% and the kinase still bound, per cent of control (STK17A (human)) was 0%. The kinase still bound, per cent of control [1] was 0%, the kinase still bound, per cent of control (MAP2K3 (human)) was 33% and the kinase still bound, per cent of control (NTRK3 (human)) was 16%. It also gave a kinase still bound, per cent of control [2] of 6.3%, a kinase still bound, per cent of control (RPS6KA4 KD2 (human)) of 44% and a kinase still bound, per cent of control [3] of 28%. It also gave a kinase still bound, per cent of control (CIT (human)) of 29%, a kinase still bound, per cent of control (SIK3 (human)) of 24% and a kinase still bound, per cent of control (MYLK4 (human)) of 7.3%. For the same compound, the kinase still bound, per cent of control (PAK3 (human)) was 7.7%, the kinase still bound, per cent of control (CAMK2A (human)) was 0.8% and the kinase still bound, per cent of control (ERBB4 (human)) was 46%. For the same compound, the kinase still bound, per cent of control (CSNK1E (human)) was 18%, the kinase still bound, per cent of control (ADCK4 (human)) was 57% and the kinase still bound, per cent of control (CDK8 (human)) was 100%. The kinase still bound, per cent of control (NLK (human)) was 88%, the kinase still bound, per cent of control (FLT4 (human)) was 2.5% and the kinase still bound, per cent of control (PLK1 (human)) was 100%. For the same compound, the kinase still bound, per cent of control (ROCK2 (human)) was 93%, the kinase still bound, per cent of control (STK4 (human)) was 6.5% and the kinase still bound, per cent of control (MYLK3 (human)) was 0.4%. It also gave a kinase still bound, per cent of control (RIOK3 (human)) of 8.4%, a kinase still bound, per cent of control (TLK2 (human)) of 56% and a kinase still bound, per cent of control (MAP3K11 (human)) of 5.6%.
